Assays:
Type in all cases: in vivo
[1] = test system: healthy women of childbearing age; assay: Clinical study: low-dose oral contraceptive (30 μg ethinylestradiol/100 μg levonorgestrel) with or without enalapril; settings: 5 mg enalapril with oral contraceptive (30 μg ethinylestradiol, 100 μg levonorgestrel), 84 days; vs oral contraceptive alone
Protocol: A clinical study is conducted in 50 healthy women of childbearing age. Two groups of 25 women who are not using oral contraception, ‘pill starters’, are enrolled. All subjects receive a low-dose oral contraceptive containing 30 μg ethinylestradiol and 100 μg levonorgestrel for 84 days. Twenty-five (25) subjects are randomized to additionally receive 5 mg enalapril as an ACE-inhibitor with the oral contraceptive during the entire study period. All subjects document any unscheduled vaginal bleeding (spotting, breakthrough bleeding) in a diary. Blood pressure is monitored intensively.

[2] = test system: healthy postmenopausal women; assay: Clinical study: continuous combined HRT (estradiol/drosperinone) with or without captopril; settings: 15 mg captopril with continuous combined HRT (1 mg estradiol, 2 mg drosperinone), three periods of 28 days; vs HRT preparation alone
Protocol: A clinical study is conducted in 50 healthy postmenopausal women, postmenopausal being defined as having had the last menstrual period at least 6 months before along with an increased FSH serum level. Two groups of 25 women who are not using any HRT are enrolled. All subjects receive a continuous combined HRT preparation containing 1 mg estradiol and 2 mg drosperinone for three periods of 28 days each. […] Subjects document any unscheduled vaginal bleeding (spotting, breakthrough bleeding) in a diary. Blood pressure is monitored intensively.

[3] = test system: healthy women of childbearing age; assay: Clinical study: low-dose oral contraceptive (20 μg ethinylestradiol/100 μg levonorgestrel) with or without irbesartan; settings: 75 mg irbesartan with oral contraceptive (20 μg ethinylestradiol, 100 μg levonorgestrel), 84 days; vs oral contraceptive alone
Protocol: (§1) A clinical study is conducted in 40 healthy women of childbearing age. Two groups of 20 women who are not using oral contraception, ‘pill starters’, are enrolled. All subjects receive a low-dose oral contraceptive containing 20 μg ethinylestradiol and 100 μg levonorgestrel for 84 days. Twenty (20) subjects are randomized to additionally receive 75 mg irbesartan as an angiotensin II-receptor antagonist concomitantly with the oral contraceptive during the entire study period. All subjects document any unscheduled vaginal bleeding (spotting, breakthrough bleeding) in a diary. Blood pressure is monitored intensively.

[4] = test system: healthy women of childbearing age; assay: Clinical study: progestogen-only oral contraceptive (75 μg desogestrel) with or without irbesartan; settings: 50 mg irbesartan with progestogen-only oral contraceptive (75 μg desogestrel), 84 days; vs oral contraceptive alone
Protocol: as §1, with “a progestogen-only” for “a low-dose”, “containing 75” for “containing 20”, “μg desogestrel” for “μg ethinylestradiol and 100 μg levonorgestrel”, “receive 50” for “receive 75”

[5] = test system: healthy women of childbearing age; assay: Clinical study: contraceptive injections (150 mg medroxyprogesterone acetate) with or without irbesartan; settings: daily 75 mg irbesartan, 6 months, with two injections of 150 mg medroxyprogesterone acetate; vs contraceptive injection alone
Protocol: (§2) A clinical study is conducted in 40 healthy women of childbearing age. Two groups of 20 women are enrolled. All subjects receive two contraceptive injections containing 150 mg medroxyprogesterone acetate each with an interval of 3 months (13 weeks). Twenty (20) subjects are randomized to additionally receive daily 75 mg irbesartan as an angiotensin II-receptor antagonist during the entire study period of 6 months. All subjects document any unscheduled vaginal bleeding (spotting, breakthrough bleeding) in a diary. Blood pressure is monitored intensively.

[6] = test system: healthy women of childbearing age; assay: Clinical study: contraceptive implant (68 mg etonogestrel) with or without irbesartan; settings: 75 mg irbesartan, 6 months, with implant containing 68 mg etonogestrel; vs contraceptive implant alone
Protocol: as §2, with “an implant” for “two contraceptive injections”, “68” for “150”, “etonogestrel.” for “medroxyprogesterone acetate each with an interval of 3 months (13 weeks).”, “receive” for “receive daily”, “antagonist concomitantly with the contraceptive implant” for “antagonist”

[7] = test system: healthy postmenopausal women; assay: Clinical study: sequentially combined HRT (estradiol/dydrogesterone) with or without irbesartan; settings: 75 mg irbesartan with sequentially combined HRT (2 mg estradiol, 10 mg dydrogesterone), 3 cycles of 28 days; vs HRT preparation alone
Protocol: A clinical study is conducted in 40 healthy postmenopausal women, postmenopausal being defined as having had the last menstrual period at least 6 months before along with an increased FSH serum level. Two groups of 20 women who are not using any HRT are enrolled. All subjects receive a sequentially combined HRT preparation for 3 cycles of 28 days each. One cycle comprises 14 days of 2 mg estradiol only followed by 14 days of 2 mg estradiol for 14 days combined with 10 mg dydrogesterone. Twenty (20) subjects are randomized to additionally receive 75 mg irbesartan as an angiotensin II-receptor antagonist concomitantly with the HRT preparation during the entire study period. Subjects document any unscheduled vaginal bleeding (spotting, breakthrough bleeding) in a diary. Blood pressure is monitored intensively.

[8] = test system: healthy postmenopausal women; assay: Clinical study: continuous combined HRT (estradiol/norethisterone acetate) with or without irbesartan; settings: 50 mg irbesartan with continuous combined HRT (2 mg estradiol, 1 mg norethisterone acetate), 84 days; vs HRT preparation alone
Protocol: A clinical study is conducted in 40 healthy postmenopausal women, postmenopausal being defined as having had the last menstrual period at least 6 months before along with an increased FSH serum level. Two groups of 20 women who are not using any HRT are enrolled. All subjects receive a continuous combined HRT preparation containing 2 mg estradiol and 1 mg norethisterone acetate for 84 days. Twenty (20) subjects are randomized to additionally receive 50 mg irbesartan as an angiotensin II-receptor antagonist concomitantly with the HRT preparation during the entire study period. Subjects document any unscheduled vaginal bleeding (spotting, breakthrough bleeding) in a diary. Blood pressure is monitored intensively.

CCOC(=O)[C@H](CCc1ccccc1)N[C@@H](C)C(=O)N1CCC[C@H]1C(=O)O [enalapril]
blood pressure pattern between groups [1]: does not differ significantly
episodes of unscheduled bleeding [1]: fewer episodes of unscheduled bleeding
intensity of blood loss [1]: less intense blood loss, if any
overall safety profile [1]: comparable to that of the group receiving the oral contraceptive alone

C[C@H](CS)C(=O)N1CCC[C@H]1C(=O)O [captopril]
Efficacy between groups [2]: do not differ significantly
episodes of unscheduled bleeding [2]: fewer episodes of unscheduled bleeding
overall safety profile [2]: comparable to that of the group receiving the HRT preparation alone

CCCCC1=NC2(CCCC2)C(=O)N1Cc1ccc(-c2ccccc2-c2nnn[nH]2)cc1 [irbesartan]
blood pressure pattern between groups [3]: does not differ significantly
episodes of unscheduled bleeding [3]: fewer episodes of unscheduled bleeding
intensity of blood loss [3]: less intense blood loss, if any
overall safety profile [3]: comparable to that of the group receiving the oral contraceptive alone
blood pressure pattern between groups [4]: does not differ significantly
episodes of unscheduled bleeding [4]: fewer episodes of unscheduled bleeding
intensity of blood loss [4]: less intense blood loss, if any
overall safety profile [4]: comparable to that of the group receiving the oral contraceptive alone
blood pressure pattern between groups [5]: does not differ significantly
episodes of unscheduled bleeding [5]: fewer episodes of unscheduled bleeding
intensity of blood loss [5]: less intense blood loss, if any
overall safety profile [5]: comparable to that of the group receiving the contraceptive injection alone
blood pressure pattern between groups [6]: does not differ significantly
episodes of unscheduled bleeding [6]: fewer episodes of unscheduled bleeding
intensity of blood loss [6]: less intense blood loss, if any
overall safety profile [6]: comparable to that of the group receiving the contraceptive implant alone
Efficacy between groups [7]: do not differ
blood pressure pattern between groups [7]: do not differ
episodes of unscheduled bleeding [7]: fewer episodes of unscheduled bleeding
intensity of blood loss [7]: less intense blood loss, if any
overall safety profile [7]: comparable to that of the group receiving the HRT preparation alone
Efficacy between groups [8]: do not differ significantly
blood pressure pattern between groups [8]: do not differ significantly
episodes of unscheduled bleeding [8]: fewer episodes of unscheduled bleeding
intensity of blood loss [8]: less intense blood loss, if any
overall safety profile [8]: comparable to that of the group receiving the HRT preparation alone
